We go through seven molecules from PMC11915509, “Small molecule inhibitors of hnRNPA2B1–RNA interactions reveal a predictable sorting of RNA subsets into extracellular vesicles” (Nucleic Acids Research, 2025).

The subject of one series is EXO-motif RNA. As to the kind of experiment: Fluorescence indicator displacement (FID) melting curve, EXO-motif RNA. The format is binding. The settings on record: 5 μM RNA, 25 μM compound, Midori green. The procedure: (§1) Five μM RNA EXO motif were mixed with 25 μM compounds in AlphaBuffer (25 mM HEPES, pH 7.4, 100 mM NaCl, 0.01% BSA) to a final volume of 20 μl. Absorbance spectrum (200–530 nm) was measured using Tecan Spark® microplate reader with a NanoQuant plate at room temperature. In fluorescence indicator displacement (FID), a 2× final concentration of Midori green advanced (Resnova) was added to the samples and the melting curve measured using Bio-Rad CFX96™ System from 30°C to 90°C.

In series [1] the test system is EV miR-221 from NSC34 cells. In words: ddPCR of miR-221-3p in NSC34-derived EV-RNA. The format is cell-based, mouse. The settings on record: NSC34-derived EVs, 6 h treatment. As to the method:
EVs were isolated from HEK293T, NSC34, and smNPC-derived motor neurons using nickel-based isolation (NBI) or differential ultracentrifugation (UC). NBI protocol was performed as already described. Briefly, after a first centrifugation step at 2800 × g for 10 min, nickel beads were incubated for 30 min with serum-free media collected from cells in a ratio of 25 μl of beads per ml of medium. After a 2 min centrifugation at 600 g, particles were eluted from the beads by adding 1× elution buffer made of Solution A [16 mM ethylenediaminetetraacetic acid (EDTA), UltraPure, pH 8.0, Thermo Fisher] and Solution B (10 mM NaCl, 225 μM citric acid, Sigma–Aldrich) diluted five times in phosphate-buffered saline (PBS). After 15 min incubation at 28°C in a thermoshaker, the EVs were retrieved by 1-min centrifugation at 1800 × g and subjected to the following characterization. NBI was used to recover polydisperse EVs and include the RNA contribution from these for reverse proteomics experiments. The EV-RNA for reverse proteomics was pooled from three consecutive EV isolation procedures performed on a total of 30 T75 flasks (10 flasks each) of NSC34 cells grown until 80% confluence under standard conditions before washing with PBS and incubating with serum-free medium with glutamine and antibiotics. Differential UC was applied as an alternative EV isolation protocol to confirm the detection of hnRNPA2B1 protein. UC was performed by a SW 32 Ti swinging bucket rotor in an Optima XPN-100 ultracentrifuge (Beckman Coulter, Brea, CA, USA). The cell-conditioned serum-free media, after the first centrifugation step at 2800 × g for 10 min, was put in open-top Ultra-Clear centrifuge tubes (Beckman Coulter-344058) and subjected to 100 000 × g (100 K) UC for 70 min at 4°C under vacuum, with or without an additional step at 10 000 × g (10 K) to first sediment larger particles. Then the supernatant was removed, and the pellet was resuspended in 0.22 μm filtered PBS. Differential UC alone, consisting of 2800 × g for 10 min and 100 000 × g for 70 min, was applied for experiments reported in Fig. 5. […]
RNA from cells was extracted using TRI Reagent® (T9424, Sigma) following the manufacturer’s instructions. Thermo Fisher Nanodrop 2000 Spectrophotometer was used to assess the purity and quantity of extracted RNA. […] The elution was in 10–20 μl of RNase-free water and the RNA profiling and quantification was assessed by Agilent 2100 Bioanalyzer and RNA 6000 Pico Kit (5067-1513). Cell- and EV-RNAs were also analysed with DNF-472 HS RNA (15 nt) Kit (Agilent Technologies, Santa Clara, CA), according to the manufacturer. […] Results were analysed with Agilent ProSize data analysis software, that allows the analysis of RNA size, concentration and quality. […]

The target in series [2] is T1, hnRNPA2B1-EXOmotif interaction (Homo sapiens, UniProt P22626).
T1 construct: purified a human full-length, GST-tagged protein expressed in Escherichia coli cells; made in house; host or cells: E. coli BL21 (DE3)
In words: AlphaScreen dose-response, inhibition of hnRNPA2B1-EXOmotif RNA interaction. The format is binding. The settings on record: AlphaScreen dose-response with RNA EXOmotif, one site fitting. (In general: Alpha assays give light when donor and acceptor beads are brought close together.)
Method: The assays were performed in OptiPlate-384-well plates (PerkinElmer, 6007299) in 20 μl final volume. The ligands were diluted in AlphaBuffer [25 mM HEPES, pH 7.4, 100 mM NaCl, 0.01% bovine serum albumin (BSA)] and tested using AlphaScreen GST Detection Kit (PerkinElmer, 6760603C). […] For the reactions, 4 μl of the RNA probes were first added to the plate, then 16 μl of a mix containing all the other components was added, and the plate was incubated at room temperature for 1 h in the dark.
The high-throughput drug screening was performed in a total volume of 20 μl using 17 nM of RNA EXO motif (chosen below the hooking point), 30 nM GST-hnRNPA2B1, and 250 nM of compounds belonging to mass spectrometry (MS) Spectrum Collection library (MicroSource, 2000 compounds). Compounds were dispensed into white 384-well Optiplates (PerkinElmer) using Echo 650 acoustic dispenser (Beckman Coulter) followed by the addition of protein in Alpha Buffer using the EL460 dispenser (BioTek). After 15 min of incubation, RNA probes were added by Echo 650 acoustic dispenser, while Donor and Acceptor beads from the GST detection kit (Perkin Elmer) were dispensed by EL460 instrument. Following 60 min of incubation, Alpha signal was detected using Enspire plate reader instrument (PerkinElmer). The raw Alpha counts were normalized to Dimethyl sulfoxide (DMSO)-treated controls within every plate.

The next series has as its system EXO-motif RNA probe. As to the kind of experiment: Absorbance scan of compounds mixed with EXO-motif RNA. The format is binding. The conditions noted are these: EXO-motif RNA probe, 1:5 micromolar ratio. The procedure:
as §1

Series [3] deals with hnRNPA2B1 and TDP43 bound RNA (miR-221, miR-1910). As to the kind of experiment: RNA immunoprecipitation (RIP) on cytoplasmic lysates of treated NSC34 cells. The format is cell-based, mouse. The settings on record: 6 h treatment, anti-hnRNPA2B1 and anti-TDP43 RIP. As to the method: Flow cytometry of a fraction of RNA immunoprecipitation (RIP) experiments, consisting of RNA/protein-antibody-bead complexes, was performed on the same instrument using a sequential gating with Streptavidin beads alone ± antibodies (this signal corresponded to background). Pyronin Y (PY) was used at a final concentration of 50 ng/ml and the PY-positive events recorded for 1 min.
Approximately 2 × 10^6 cells were used for each RIP experiment, performed as already described, without cross-linking steps and using 0.5 μg/ml of antibodies. Beads-precipitated samples were divided for immunoblotting or TRIzol-based RNA isolation. Densitometric analysis obtained using Image J software (v.1.54). miRNA TaqMan probes were bought from Thermo Fisher with the following codes: miR-221 (477 981), miR-1910 (479 581), and miR-126 (4 427 975).

For another series, the system named is NSC34 cells. As to the kind of experiment: Nanodrop quantification of total intracellular RNA after treatment. The conditions noted are these: 6 h treatment. The format is cell-based, mouse. The procedure:
RNA from cells was extracted using TRI Reagent® ([…], Sigma) following the manufacturer's instructions. Thermo Fisher Nanodrop 2000 Spectrophotometer was used to assess the purity and quantity of extracted RNA. RNA from EVs was extracted using Single Cell RNA Isolation Kit (51800, Norgen) following the manufacturer's protocol. The elution was in 10-20 μl of RNase-free water and the RNA profiling and quantification was assessed by Agilent 2100 Bioanalyzer and RNA 6000 Pico Kit (5067-1513). Cell- and EV-RNAs were also analysed with DNF-472 HS RNA (15 nt) Kit (Agilent Technologies, Santa Clara, CA), according to the manufacturer. Briefly, 2 μl of RNA samples concentrated within a range of 50-5000 pg/μl and RNA Ladder were added to Diluent Marker, denatured at 70°C for 2 min and loaded. Results were analysed with Agilent ProSize data analysis software, that allows the analysis of RNA size, concentration and quality. Through a Peak Analysis it was possible to access the concentration of each peak recognized by the software. Half a nanogram of extracted RNA from cells and EVs was used as input for complementary DNA (cDNA) synthesis. cDNA was produced using TaqManTM Advanced miRNA cDNA Synthesis Kit (Applied BiosystemsTM, A28007) following manufacturers' instructions and used for droplet digital polymerase chain reaction (PCR) experiments.

The subject of series [4] is hnRNPA2B1 protein association with purine-rich RNA probe. As to the kind of experiment: RNA pull-down with biotinylated EXOmotif probe after cell treatment, immunoblotting. The format is cell-based, mouse. The settings on record: NSC34 cells, 6 h, 5 μM compound. The procedure: To prepare native protein lysates, 1–3 × 10^6 NSC34 cells were lysed in buffer R-Lysis [25 mM HEPES, pH 7.5, 100 mM NaCl, 1× protease inhibitor (Thermo Fisher, 78429)] and subjected to a water-bath sonication (35–40 amplitude, 6–7 cycles of 7 s on and 45 s off). After a centrifugation at 14 000 rpm for 20 min at 4°C, the supernatant was collected and 200 μg were incubated with 5 μl of buffer equilibrated Dynabeads^TM M-280 Streptavidin (Invitrogen, 11205D) for 15 min at 4°C in rotation to perform a pre-clearing step. After the magnetic separation, the pre-cleared lysate was incubated with 10 μl of 100 μM RNA biotinylated probes (or 400 ng of biotinylated EV-RNA) and incubated for 1 h at 4°C in rotation. Then, 5 μl/sample of beads were added and the sample were put again in rotation for 20 min at 4°C. […]
Cells were lysed in lysis buffer [50 mM Tris–HCl, pH 7.4, 150 mM NaCl, 1 mM EDTA, 0.25% NP-40, 0.1% Triton X-100, 0.1% sodium dodecyl sulphate, 1× protease inhibitor (Thermo Fisher, 78429)]. […] The signal was measured with Amersham ECL HRP-Conjugated Antibodies (Cytiva) using BioRad Chemidoc XRS+.
On the technique in general: A western blot detects proteins with antibodies after separation by electrophoresis.

Series [5] concerns the target T2, GST-hnRNPA2B1 (Homo sapiens, UniProt P22626 1-353). In words: AlphaScreen saturation binding; AlphaScreen: 25 mM HEPES pH 7.4, 100 mM NaCl, 0.01% BSA, RT 1 h; REMSA: 20 mM HEPES pH 7.5, 50 mM KCl, 0.5 ug BSA, 0.25% glycerol, RT; pull-down: 25 mM HEPES pH 7.5, 100 mM NaCl, 4 C. The conditions noted are these: protein: recombinant; tags: N-terminal GST (pGEX-6P-1); label: 5'-biotin-TEG; single strand; weak predicted secondary structure (-0.5 kcal/mol).

For series [6], the target named is T2, GST-hnRNPA2B1. In words: AlphaScreen kinetics (koff/kon); 30 nM protein; kon 523664 M-1 min-1, koff 0.02091 min-1; AlphaScreen: 25 mM HEPES pH 7.4, 100 mM NaCl, 0.01% BSA, RT 1 h; REMSA: 20 mM HEPES pH 7.5, 50 mM KCl, 0.5 ug BSA, 0.25% glycerol, RT; pull-down: 25 mM HEPES pH 7.5, 100 mM NaCl, 4 C. The conditions noted are these: protein: recombinant; tags: N-terminal GST (pGEX-6P-1); label: 5'-biotin-TEG; single strand; weak predicted secondary structure (-0.5 kcal/mol).

The target of series [7] is T2, GST-hnRNPA2B1. As to the kind of experiment: AlphaScreen saturation binding; near-background counts; AlphaScreen: 25 mM HEPES pH 7.4, 100 mM NaCl, 0.01% BSA, RT 1 h; REMSA: 20 mM HEPES pH 7.5, 50 mM KCl, 0.5 ug BSA, 0.25% glycerol, RT; pull-down: 25 mM HEPES pH 7.5, 100 mM NaCl, 4 C. The conditions noted are these: protein: recombinant; tags: N-terminal GST (pGEX-6P-1); label: 5'-biotin-TEG; single strand.

Values joined by “and” are separate entries in the source; they are usually repeats but may differ in a detail not shown here. Equal entries are not always repeated. Structures can show the parent of a compound that is named as a salt.

What is called IC50 is the concentration that gives 50% inhibition. A higher IC50 goes with a need for much substance. What is called Kd is the concentration at which binding is half-saturated.

T1 sequence (P22626 whole entry): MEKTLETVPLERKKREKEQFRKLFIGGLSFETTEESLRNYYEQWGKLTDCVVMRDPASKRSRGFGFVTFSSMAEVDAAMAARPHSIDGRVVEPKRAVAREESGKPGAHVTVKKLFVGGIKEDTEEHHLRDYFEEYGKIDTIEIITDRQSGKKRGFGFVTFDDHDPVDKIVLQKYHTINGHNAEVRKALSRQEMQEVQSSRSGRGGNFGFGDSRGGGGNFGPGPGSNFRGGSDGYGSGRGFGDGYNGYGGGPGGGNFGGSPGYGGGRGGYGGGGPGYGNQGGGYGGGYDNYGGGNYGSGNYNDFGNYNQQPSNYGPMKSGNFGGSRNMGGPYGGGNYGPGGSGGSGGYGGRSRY
T2 sequence (P22626 whole entry): as above

As for neomycin [reference compound], the “thermal shift of the EXO-motif RNA” value with EXO-motif RNA worked out at 6.3 °C.

Regarding `O=C(O[C@@H]1Cc2c(O)cc(O)cc2O[C@@H]1c1cc(O)c(=O)c2c(O)c(O)cc([C@H]3Oc4cc(O)cc(O)c4C[C@H]3OC(=O)c3cc(O)c(O)c(O)c3)c2c1)c1cc(O)c(O)c(O)c1` [TD, theaflavin digallate], the “vesicular miR-221, copy number normalized on Y3 RNA and DMSO” value in series [1] is listed as “vesicular depletion”.

Consider `CC(C)=CC1C(C(=O)OCc2cccc(Oc3ccccc3)c2)C1(C)C` (centres unmarked) [P, phenotrin], for which the IC50 in series [2] is ~120 nM and 122 nM. Moreover, the “spectroscopic changes at 230 nm” value in the series with EXO-motif RNA probe was “main spectroscopic changes”. Also, the “percentage of bound targets (miR-221, miR-1910)” value in [3] is recorded as “significantly reduced”. In addition, in the series with NSC34 cells, the “accumulation of intracellular RNAs” value was “significantly higher”. Also, in [1], the “vesicular miR-221, copy number normalized on Y3 RNA and DMSO” value is “vesicular depletion”.

For `O=C(O)C1=CC(=C(c2ccc(O)c(C(=O)O)c2)c2ccc(O)c(C(=O)O)c2)C=CC1=O` [ATA, aurin tricarboxylic Acid, reference compound], the IC50 in series [2] is ~250 nM and 250 nM.

With `C=C1c2cccc(O)c2C(=O)C2=C(O)[C@]3(O)C(=O)C(C(N)=O)=C(O)[C@@H](N(C)C)[C@@H]3[C@@H](O)[C@H]12` [MH, methacycline hydrochloride, reference compound], inhibition in [2] was half-maximal at 100 nM (IC50). The “association of hnRNPA2B1 protein with exogenous purine-rich RNA probe” value in series [4] is given as “most effective”. Further, in series [1], the “vesicular miR-221, copy number normalized on Y3 RNA and DMSO” value was “vesicular depletion”.

In the case of GGGGAGGUUAGGGAGGAGGGGGGUAGGCGCC (ssRNA) [EXOmotif RNA (biotin)], the results for the Kd with GST-hnRNPA2B1 [5] and with GST-hnRNPA2B1 [6] were 3.4 ± 1.6 nM and 40 ± 3 nM, respectively.

In the case of AGGACUGC (ssRNA) [RNA 276], in the series with GST-hnRNPA2B1 [7], the binding result is given as “no binding”.
